Measurements: US20210222177A1, “THERAPEUTIC AGENT FOR CARTILAGE-RELATED DISEASE” (ONO PHARMACEUTICAL CO., LTD., priority 2018, published 2021)

System: Normal human knee joint chondrocytes
Assay: Evaluation of chondrocyte differentiation promoting action (chondrocyte pellet culture)
Type: cell-based
Conditions: ASO final concentration 1000 nmol/L with calcium chloride 9 mmol/L, pellet-cultured for 10 days, versus Vehicle group
Method: Normal human knee joint chondrocytes (Lonza Walkersville, Inc.) were thawed and cultured (culture conditions; 5% CO2, 37° C., 95% Air, the same conditions applies hereafter.) in a subculture medium (DMEM/F-12+glutaMAX, included in set of chondrocyte addition factors (Lonza Walkersville, Inc.)). Diluted subculture was performed after subconfluent, and two days after subculture, the culture was treated with antisense oligonucleotides against SIK2 and SIK3 (hereinafter SIK2 ASO; ACAACAACTGCACTTT (SEQ ID NO: 1) and SIK3 ASO; GGTTAGTGCCACGTTG (SEQ ID NO: 6)) in the presence of calcium chloride (9 mmol/L) (final concentration 1000 nmol/L). […] Chondrocyte pellets were imaged using Opera Phenix High Content Screening System (PerkinElmer), and pellet size (area of the pellet image) was calculated using an attached analysis software Harmony. The chondrocyte pellets after imaging were frozen in liquid nitrogen, crushed using AUTOMILL (Tokken, inc.), and then total RNA was extracted using RNeasy Plus Mini Kit (QIAGEN N.V.). cDNA was synthesized from a total RNA solution using High Capacity cDNA Reverse Transcription Kit, and expression level of each gene was measured by real-time polymerase chain reaction (PCR) method using TaqMan Fast Universal PCR Master Mix (2×) (Life Technologies Corporation) and Primer-Probe (COL2A1 assay ID: Hs01060345_m1, COL1A2 assay ID: Hs01028970_m1) of each gene. […]

Substance: SIK2 ASO: SIK2 antisense oligonucleotide, ACAACAACTGCACTTT (SEQ ID NO: 1) (listed as DNA, chemistry not given here)
- cartilage differentiation markers COL2A1/COL1A2 (real-time PCR, FIG. 2): increased
- chondrocyte pellet size (area of the pellet image) (t-test, FIG. 1): significantly increased
